Laboratory results reported in ChEMBL document CHEMBL1144613, “Substituted acyclic sulfonamides as human cannabinoid-1 receptor inverse agonists” (Bioorg Med Chem Lett, 2007).

Assays:
[1] = molecular target: Cannabinoid receptor 2 (Homo sapiens, UniProt P34972); assay: Displacement of [3H]CP-55940 from human recombinant CB2 receptor expressed in CHO cells; type: cell-based
[2] = molecular target: Cannabinoid receptor 1 (Homo sapiens, UniProt P21554); assay: biochemical; type: cell-based, CHO
[3] = tested on: Rattus norvegicus; assay: Inhibition of CP-55940-induced hypothermia in rat at 3 mg/kg, iv after 30 mins; type: functional; conditions: 0.5 h
[4] = Brain concentration in rat at 1 mg/kg, iv at 0.25 h; type: ADME, organism-based; parameters: dose 1 mg/kg, route intravenous; conditions: read-out: Activity
[5] = Brain concentration in rat at 1 mg/kg, iv at 1 h; type: ADME, organism-based; parameters: dose 1 mg/kg, route intravenous; conditions: read-out: Activity
[6] = Volume of distribution at steady state in rat at 1 mg/kg, iv or 2 mg/kg, po; type: ADME, organism-based; conditions: in vivo, read-out: Vdss
[7] = Half life in rat at 1 mg/kg, iv or 2 mg/kg, po; type: ADME, organism-based; conditions: in vivo
[8] = Oral bioavailability in rat at 1 mg/kg, iv or 2 mg/kg, po; type: ADME, organism-based; conditions: in vivo
[9] = Plasma clearance in rat at 1 mg/kg, iv or 2 mg/kg, po; type: ADME, organism-based
[10] = Cmax in rat at 1 mg/kg, iv or 2 mg/kg, po; type: ADME, organism-based; conditions: in vivo
[11] = Plasma concentration in rat at 1 mg/kg, iv at 0.25 h; type: ADME, organism-based; parameters: dose 1 mg/kg, route intravenous
[12] = Plasma concentration in rat at 1 mg/kg, iv at 1 h; type: ADME, organism-based; parameters: dose 1 mg/kg, route intravenous
[13] = Plasma concentration in rat at 1 mg/kg, iv at 2 hrs; type: ADME, organism-based; parameters: dose 1 mg/kg, route intravenous
[14] = Brain concentration in rat at 1 mg/kg, iv at 2 hrs; type: ADME, organism-based; parameters: dose 1 mg/kg, route intravenous; conditions: read-out: Activity
[15] = Ratio of drug level in brain to plasma in rat at 1 mg/kg, iv at 0.25 h; type: ADME, organism-based; parameters: dose 1 mg/kg, route intravenous
[16] = Ratio of drug level in brain to plasma in rat at 1 mg/kg, iv at 1 h; type: ADME, organism-based; parameters: dose 1 mg/kg, route intravenous
[17] = Ratio of drug level in brain to plasma in rat at 1 mg/kg, iv at 2 hrs; type: ADME, organism-based; parameters: dose 1 mg/kg, route intravenous
[18] = molecular target: Cannabinoid receptor 1 (Rattus norvegicus, UniProt P20272); assay: Binding affinity at rat CB1 receptor
Cannabinoid receptor 1 (Rattus norvegicus, UniProt P20272), sequence (P20272 whole entry): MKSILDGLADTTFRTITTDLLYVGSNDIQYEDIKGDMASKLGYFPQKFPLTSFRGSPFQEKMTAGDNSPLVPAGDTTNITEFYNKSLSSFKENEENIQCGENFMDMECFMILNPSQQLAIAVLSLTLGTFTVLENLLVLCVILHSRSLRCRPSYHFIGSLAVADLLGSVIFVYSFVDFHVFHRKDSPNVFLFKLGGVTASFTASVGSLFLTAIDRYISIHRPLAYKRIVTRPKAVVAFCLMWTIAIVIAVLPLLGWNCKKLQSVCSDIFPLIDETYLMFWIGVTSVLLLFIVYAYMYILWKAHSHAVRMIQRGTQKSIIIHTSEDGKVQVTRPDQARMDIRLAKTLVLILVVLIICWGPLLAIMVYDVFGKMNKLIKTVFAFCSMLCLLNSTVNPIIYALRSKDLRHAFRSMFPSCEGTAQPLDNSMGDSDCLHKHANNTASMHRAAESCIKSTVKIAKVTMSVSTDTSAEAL

Cannabinoid receptor 1 (Homo sapiens, UniProt P21554), sequence (P21554 whole entry): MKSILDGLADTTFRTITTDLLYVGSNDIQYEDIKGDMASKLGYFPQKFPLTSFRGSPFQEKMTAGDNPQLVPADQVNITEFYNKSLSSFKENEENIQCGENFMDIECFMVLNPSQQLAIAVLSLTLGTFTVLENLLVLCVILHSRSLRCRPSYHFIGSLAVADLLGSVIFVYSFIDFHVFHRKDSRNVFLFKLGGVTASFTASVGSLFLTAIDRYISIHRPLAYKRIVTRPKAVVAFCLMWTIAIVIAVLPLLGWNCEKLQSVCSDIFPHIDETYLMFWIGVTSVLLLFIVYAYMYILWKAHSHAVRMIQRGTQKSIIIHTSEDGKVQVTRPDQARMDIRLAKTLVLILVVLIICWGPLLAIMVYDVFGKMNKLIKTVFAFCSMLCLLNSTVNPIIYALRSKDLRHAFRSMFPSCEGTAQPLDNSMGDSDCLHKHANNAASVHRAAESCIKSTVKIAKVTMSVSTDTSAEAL
Cannabinoid receptor 2, sequence (P34972 whole entry): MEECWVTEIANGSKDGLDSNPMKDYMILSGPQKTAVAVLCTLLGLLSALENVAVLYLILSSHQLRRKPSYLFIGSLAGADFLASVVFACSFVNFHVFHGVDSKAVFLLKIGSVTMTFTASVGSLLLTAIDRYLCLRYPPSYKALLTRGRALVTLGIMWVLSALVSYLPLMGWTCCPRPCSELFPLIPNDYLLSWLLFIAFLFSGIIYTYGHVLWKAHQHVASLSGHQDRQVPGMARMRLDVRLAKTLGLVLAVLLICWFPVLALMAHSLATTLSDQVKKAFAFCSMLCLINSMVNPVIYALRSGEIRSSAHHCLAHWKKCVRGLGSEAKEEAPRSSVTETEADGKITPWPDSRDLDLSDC

Structure (SMILES) | IC50 [1] [µM] | IC50 [2] [µM] | also measured
C[C@H](NS(=O)(=O)c1ccc(Cl)cc1)[C@@H](Cc1ccc(Cl)cc1)c1cccc(C#N)c1 | 0.454 | 0.0217 | –
C[C@H](NC(=O)c1ccccc1)[C@@H](Cc1ccc(Cl)cc1)c1cccc(C#N)c1 | 1.91 | 0.845 | –
C[C@H](NS(=O)(=O)Cc1ccccc1Cl)[C@@H](Cc1ccc(Cl)cc1)c1cccc(C#N)c1 | 1.92 | 0.016 | –
Cc1c(C(=O)NN2CCCCC2)nn(-c2ccc(Cl)cc2Cl)c1-c1ccc(Cl)cc1 [RIMONABANT] | – | – | inhibition in vivo at 3 mg/kg [3]: 97.9%
C[C@H](NS(=O)(=O)c1ccccc1Cl)[C@@H](Cc1ccc(Cl)cc1)c1cccc(C#N)c1 | 0.668 | 0.0123 | –
C[C@H](NS(=O)(=O)/C=C/c1ccccc1)[C@@H](Cc1ccc(Cl)cc1)c1cccc(C#N)c1 | 1.08 | 0.0418 | –
C[C@H](NS(=O)(=O)Cc1cccc(Cl)c1)[C@@H](Cc1ccc(Cl)cc1)c1cccc(C#N)c1 | 2 | 0.0535 | –
C[C@H](NS(=O)(=O)c1cccc2ccccc12)[C@@H](Cc1ccc(Cl)cc1)c1cccc(C#N)c1 | 1.12 | 0.0211 | –
C[C@H](NS(=O)(=O)CCc1ccccc1)[C@@H](Cc1ccc(Cl)cc1)c1cccc(C#N)c1 | 0.904 | 0.0193 | –
C[C@H](NS(=O)(=O)c1ccc(Cl)cc1Cl)[C@@H](Cc1ccc(Cl)cc1)c1cccc(C#N)c1 | 0.301 | 0.0071 | –
C[C@H](NC(=O)CCc1ccccc1)[C@@H](Cc1ccc(Cl)cc1)c1cccc(C#N)c1 | 1.37 | 0.0383 | –
C[C@@H]([C@@H](Cc1ccc(Cl)cc1)c1cccc(C#N)c1)N(C)S(=O)(=O)c1cc(Cl)cc(Cl)c1 | > 2 | > 2 | –
C[C@H](NS(=O)(=O)c1cccc(-c2ccccc2)c1)[C@@H](Cc1ccc(Cl)cc1)c1cccc(C#N)c1 | 0.394 | 0.0028 | concentration at 0.25 h [4]: 0.146 µM; concentration at 1 h [5]: 0.092 µM; Vd [6]: 6.9 L/kg; half-life [7]: 8.4 h; bioavailability [8]: 48%; clearance [9]: 0.636 L/h/kg; Cmax [10]: 0.343 µM; concentration at 0.25 h [11]: 0.22 µM; concentration at 1 h [12]: 0.113 µM; concentration at 2 h [13]: 0.054 µM; concentration at 2 h [14]: 0.054 µM; Kp at 0.25 h [15]: 0.66; Kp at 1 h [16]: 0.82; Kp at 2 h [17]: 1; inhibition in vivo at 3 mg/kg [3]: 48.9%; IC50 [18]: 0.0023 µM
C[C@@H]([C@@H](Cc1ccc(Cl)cc1)c1cccc(C#N)c1)N(C)S(C)(=O)=O | > 2 | > 2 | –
C[C@H](NS(=O)(=O)c1cc(Cl)ccc1Cl)[C@@H](Cc1ccc(Cl)cc1)c1cccc(C#N)c1 | 0.498 | 0.0074 | –
C[C@H](NS(=O)(=O)c1ccc(-c2ccccc2)cc1)[C@@H](Cc1ccc(Cl)cc1)c1cccc(C#N)c1 | 0.406 | 0.023 | –
C[C@H](NS(=O)(=O)Cc1ccc(Cl)cc1)[C@@H](Cc1ccc(Cl)cc1)c1cccc(C#N)c1 | 1.76 | 0.0154 | –

Structure (SMILES) | IC50 [1] [µM] | IC50 [2] [µM] | also measured
C[C@H](NC(=O)c1cc(Cl)cc(Cl)c1)[C@@H](Cc1ccc(Cl)cc1)c1cccc(C#N)c1 | 0.181 | 0.282 | –
C[C@H](NS(=O)(=O)C(C)(C)C)[C@@H](Cc1ccc(Cl)cc1)c1cccc(C#N)c1 | > 2 | 1.68 | –
CCCCS(=O)(=O)N[C@@H](C)[C@@H](Cc1ccc(Cl)cc1)c1cccc(C#N)c1 | 1.44 | 0.0752 | –
C[C@H](NS(C)(=O)=O)[C@@H](Cc1ccc(Cl)cc1)c1cccc(C#N)c1 | > 2 | > 2 | –
C[C@H](NS(=O)(=O)Cc1ccccc1)[C@@H](Cc1ccc(Cl)cc1)c1cccc(C#N)c1 | > 2 | 0.0209 | –
C[C@H](NS(=O)(=O)c1cc(Cl)cc(Cl)c1)[C@@H](Cc1ccc(Cl)cc1)c1cccc(C#N)c1 | 0.998 | 0.0114 | –
C[C@H](NS(=O)(=O)c1cc(Cl)c(Cl)cc1Cl)[C@@H](Cc1ccc(Cl)cc1)c1cccc(C#N)c1 | 0.622 | 0.016 | –
C[C@H](NS(=O)(=O)c1cccc(Cl)c1)[C@@H](Cc1ccc(Cl)cc1)c1cccc(C#N)c1 | 0.808 | 0.0139 | –
C[C@H](NC(=O)c1c(Cl)cccc1Cl)[C@@H](Cc1ccc(Cl)cc1)c1cccc(C#N)c1 | 0.945 | 0.0372 | –
C[C@H](NS(=O)(=O)c1cccc(Cl)c1Cl)[C@@H](Cc1ccc(Cl)cc1)c1cccc(C#N)c1 | 0.202 | 0.0107 | –
C[C@H](NS(=O)(=O)c1c(Cl)cccc1Cl)[C@@H](Cc1ccc(Cl)cc1)c1cccc(C#N)c1 | 0.283 | 0.0298 | –
C[C@H](NS(=O)(=O)c1ccccc1)[C@@H](Cc1ccc(Cl)cc1)c1cccc(C#N)c1 | 1.49 | 0.0097 | –
C[C@H](NS(=O)(=O)c1ccc2ccccc2c1)[C@@H](Cc1ccc(Cl)cc1)c1cccc(C#N)c1 | 1.09 | 0.015 | –
C[C@H](NS(=O)(=O)c1cc(C(F)(F)F)cc(C(F)(F)F)c1)[C@@H](Cc1ccc(Cl)cc1)c1cccc(C#N)c1 | 1.76 | 0.0032 | –
C[C@H](NS(=O)(=O)c1cc(F)cc(F)c1)[C@@H](Cc1ccc(Cl)cc1)c1cccc(C#N)c1 | 1.08 | 0.0051 | –
C[C@H](NC(=O)Cc1ccccc1)[C@@H](Cc1ccc(Cl)cc1)c1cccc(C#N)c1 | > 2 | 0.0441 | –
